Laboratory results: US9907758B2, “Process for preparing solid lipid sustained release nanoparticles for delivery of vitamins” (Department of Biotechnology (DBT), priority 2012, dated 2018)
Where two headings read alike, the source gives them in different places. Values belong to the molecule of their own block, whether it stands above or below them.

Legend:
[1] = In vivo pharmacokinetic studies, oral and subcutaneous; parameters: species or system male Wistar rats; conditions: for AUC(0-t): plasma
Experimental: In vivo pharmacokinetic studies were performed using male Wistar rats weighing 250-300 g. The protocol was duly approved by the Institutional Animal Ethics Committee (IAEC) of Panjab University, Chandigarh, India. The animals were divided into four groups (n=6). Group 1 was administered 2.5 Lacs International units (IU) subcutaneous retinoic acid and vitamin D3 SLNs simultaneously, Group 2 was also simultaneously administered 2.5 Lacs IU free retinoic acid and vitamin D3. Group 3 was administered simultaneously 1 Lac IU oral Retinoic acid and vitamin D3 SLNs, Group 4 was administered simultaneously 1 Lac IU oral free Retinoic acid and vitamin D3. The blood samples (0.5 mL) were withdrawn from sinus under clavicle and, collected into heparinized micro-centrifuge tubes (containing […] of 1000 IU heparin/mL of blood) at 0.5 h, 1 h, 2 h, 4 h, 8 h, 12 h, 24 h, 48 h, 72 h, 96 h, 120 h, 144 h, 168 h. After each sampling, 1 mL of dextrose-normal saline was administered to prevent changes in the central compartment volume and electrolytes. Plasma was separated by centrifuging the blood samples at 4000 rpm for 10 min at 4° C. After centrifugation, the plasma obtained was stored at −20° C. until analysis.
500 microliter blank plasma was taken and into it added 20 microliter stock standard dilutions of different concentrations (0.01 mcg to 1 mcg) (vortex) and added 400 microliter of chilled ethanol (vortex) and to it was added 2 ml (n-Hexane:ethylacetate (90:10) (Vortex) and the same was kept at −20° C. for 5 min followed by Cold centrifuge at 5000 rpm for 5 min finally separating the upper layer carefully and drying the solution under rotavapour/nitrogen gas, after drying add 250 microliter of acetonitrile and inject the sample to HPLC/UPLC. The method was applied for extraction procedure for Pharmacokinetic samples after giving SLNs and free drugs of Retinoic acid and vitamin D3 formulation to rats as oral/subcutaneous routes and sampling time points (0.5 h, 1 h, 2 h, 4 h, 8 h, 12 h, 24 h, 48 h, 72 h, 96 h, 120 h, 144 h, 168 h).

[2] = in vivo; cited from earlier work

Cmax ([1]; male, Wistar, 1 Lac IU, plasma ATRA, oral administration, rat, read-out: Cmax): 151 ng/mL
AUC(0-t) ([1]; male, Wistar, rat, po, 1 Lac I.U, plasma ATRA, single dose oral, 1 Lac I.U, rat, read-out: AUC (0-T)): 357 ng·h/mL
AUC(0-t) ([1]; male, Wistar, rat, po, 1 Lac I.U, plasma ATRA, single dose oral, 1 Lac I.U, rat, read-out: AUC (T-∞)): 714 ng·h/mL
AUC(0-t) ([1]; male, Wistar, rat, po, 1 Lac IU, plasma ATRA, oral administration, rat, read-out: AUC0-t): 356 ng·h/mL
AUC(0-t) ([1]; male, Wistar, rat, po, 1 Lac IU, plasma ATRA, oral administration, rat, read-out: AUCt-∞): 713 ng·h/mL
AUC(0-t) ([1]; male, Wistar, rat, sc, 2.5 Lac I.U, plasma ATRA, single dose subcutaneous, 2.5 Lac I.U, rat, read-out: AUC (0-T)): 2820 ng·h/mL
AUC(0-t) ([1]; male, Wistar, rat, sc, 2.5 Lac I.U, plasma ATRA, single dose subcutaneous, 2.5 Lac I.U, rat, read-out: AUC (T-∞)): 2950 ng·h/mL
AUC(0-t) ([1]; male, Wistar, rat, sc, 2.5 Lacs IU, plasma ATRA, single dose subcutaneous, rat, read-out: AUC0-t): 2820 ng·h/mL
AUC(0-inf) ([1]; male, Wistar, sc, 2.5 Lacs IU, plasma ATRA, single dose subcutaneous, rat): 2950 ng·h/mL
Cmax ([1]; male, Wistar, sc, 2.5 Lacs IU, plasma ATRA, single dose subcutaneous, rat, read-out: Cmax): 1390 ng/mL
Cmax ([1]; male, Wistar, sc, plasma ATRA, single dose subcutaneous injection, 2.5 Lac I.U, rat, read-out: Cmax): 1400 ng/mL
half-life ([1]; male, Wistar, sc, plasma ATRA, single dose subcutaneous, 2.5 Lac I.U, rat): 57 min
Tmax ([1]; male, Wistar, sc, plasma ATRA, single dose subcutaneous, 2.5 Lac I.U, rat, read-out: Tmax): 30 min
half-life ([1]; male, Wistar, plasma ATRA, single dose oral, 1 Lac I.U, rat): 290 min
Cmax ([1]; male, Wistar, plasma ATRA, single dose oral, 1 Lac I.U, rat, read-out: Cmax): 151 ng/mL
Tmax ([1]; male, Wistar, plasma ATRA, single dose oral, 1 Lac I.U, rat, read-out: Tmax): 54 min
Kel ([1]; plasma ATRA, single dose oral, 1 Lac I.U, rat): 0.17
Kel ([1]; plasma ATRA, single dose subcutaneous, 2.5 Lac I.U, rat): 0.74
plasma ATRA dropped to an undetectable level at, after dosing ([1]; rat plasma): 4 h
SMILES: CC1=C(/C=C/C(C)=C/C=C/C(C)=C/C(=O)O)C(C)(C)CCC1 [ATRA-S, all-trans retinoic acid]

SMILES: C=C1CC[C@H](O)C/C1=C/C=C1\CCC[C@]2(C)[C@@H]([C@H](C)CCCC(C)C)CC[C@@H]12 [Vitamin D3-S, cholecalciferol]
Cmax ([1]; male, Wistar, rat, in vivo, po): < 25 ng/mL
Tmax ([1]; male, Wistar, rat, in vivo, po): 0 min
Cmax ([1]; male, Wistar, rat, in vivo, sc): < 25 ng/mL
Tmax ([1]; male, Wistar, rat, in vivo, sc): 0 min
Kel ([1]; plasma vitamin D3, single dose oral, 1 Lac IU, rat): 0.0
Kel ([1]; plasma vitamin D3, single dose subcutaneous, 2.5 Lac I.U, rat): 0.0
CL ([1]; rat, in vivo, po): 0.0 mL/h/g
T1/2 ([1]; rat, in vivo, po): 0 h
CL ([1]; rat, in vivo, sc): 0.0 mL/h/g
T1/2 ([1]; rat, in vivo, sc): 0 h

SMILES: C=C1CC[C@H](O)C/C1=C/C=C1\CCC[C@]2(C)[C@@H]([C@H](C)CCCC(C)C)CC[C@@H]12 [vitamin D3, cholecalciferol]
Cmax in plasma [2]: not more than 75 ng/ml
